Assay results: patent EP1036783B1 (MERCK & CO. INC., priority 1999, dated 2000)

What was measured:
clinical = conditions: human, in vivo
HMG-CoA reductase [1] = conditions: following intraduodenal administration of dihydroxy open acid simvastatin
HMG-CoA reductase [2] = conditions: human, in vivo

With `CCC(C)(C)C(=O)O[C@H]1C[C@@H](C)C=C2C=C[C@H](C)[C@H](CC[C@@H](O)C[C@@H](O)CC(=O)O)[C@H]21` [SVA, dihydroxy open acid simvastatin] the “effect of itraconazole measured as the unchanged drug” value (clinical) was 1.5 fold, the Tmax (clinical; SVA in plasma) was 4.1 h and the Tmax (clinical; Simyastatin Acid in plasma) was 4.1 ± 2.1 h. The half-life (clinical; t1/2, SV in plasma) was 6.7 h, the half-life (clinical; t1/2, SVA in plasma) was 2.3 h and the half-life (clinical; t1/2, Simyastatin Acid in plasma) was 2.3 ± 0.5 h. For the same compound, the “lactonization of dihydroxy open acid simvastatin or its active metabolites” value (HMG-CoA reductase [1]) was “occurred minimally”, the “Cmax, Active Inhibitors” value (HMG-CoA reductase [2]) was 5.7 = 3.0 ng eq/mL and the “Tmax, Active HMG-CoA reductase inhibitors” value (HMG-CoA reductase [2]) was 3.6 (2.5) hr. The “change by itraconazole pre-treatment in AUC and Cmax of HMG-CoA reductase inhibitory activity (total or active)” value (HMG-CoA reductase [2]) was 1.3-1.5 fold.
